One compound from PMC4605326 (Nucleic Acids Research, 2015) can be followed below.

For this test, the system named is BsPif1. The following applies: 50 nM enzyme; 67-mer ss oligonucleotide 25 μg/ml; 25 mM Tris-HCl pH 7.5, 50 mM NaCl, 2 mM MgCl2, 2 mM DTT; 37°C.

`Nc1ncnc2c1ncn2[C@@H]1O[C@H](COP(=O)(O)OP(=O)(O)OP(=O)(O)O)[C@@H](O)[C@H]1O` [ATP]: the Km stood at 0.2 µM.

In general, Km refers to the concentration of substrate that gives half-maximal velocity.
